The text below walks through data of US20240270762A1, “PENICILLIN-BINDING PROTEIN INHIBITORS” (priority 2021, published 2024).

The target of one experiment is T1, A. baumannii PBP1a (Acinetobacter baumannii, UniProt A0ABX6CK30).
T1 sequence (A0ABX6CK30 1-851): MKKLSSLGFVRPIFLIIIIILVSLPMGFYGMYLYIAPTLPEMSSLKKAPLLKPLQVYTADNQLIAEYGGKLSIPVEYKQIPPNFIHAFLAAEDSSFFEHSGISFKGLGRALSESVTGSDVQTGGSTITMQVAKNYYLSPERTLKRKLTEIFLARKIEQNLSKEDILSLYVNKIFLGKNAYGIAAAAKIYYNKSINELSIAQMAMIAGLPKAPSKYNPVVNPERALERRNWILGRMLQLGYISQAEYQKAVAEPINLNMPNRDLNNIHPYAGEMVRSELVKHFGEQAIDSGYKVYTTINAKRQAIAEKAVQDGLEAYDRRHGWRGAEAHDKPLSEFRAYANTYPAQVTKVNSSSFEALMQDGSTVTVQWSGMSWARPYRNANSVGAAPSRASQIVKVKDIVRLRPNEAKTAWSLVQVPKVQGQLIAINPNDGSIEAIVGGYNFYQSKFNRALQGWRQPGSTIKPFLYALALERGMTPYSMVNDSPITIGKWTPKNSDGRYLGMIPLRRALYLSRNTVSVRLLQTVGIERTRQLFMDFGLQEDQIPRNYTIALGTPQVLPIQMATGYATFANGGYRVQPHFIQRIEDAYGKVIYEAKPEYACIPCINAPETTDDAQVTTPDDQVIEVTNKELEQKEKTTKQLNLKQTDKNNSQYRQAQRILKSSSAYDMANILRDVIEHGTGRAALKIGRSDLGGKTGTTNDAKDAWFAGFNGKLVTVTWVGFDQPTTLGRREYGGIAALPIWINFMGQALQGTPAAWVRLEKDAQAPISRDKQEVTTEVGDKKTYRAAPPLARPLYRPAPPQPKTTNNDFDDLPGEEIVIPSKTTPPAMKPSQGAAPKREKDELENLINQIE
The experiment can be described thus: Bocillin-FL competition binding via gel filtration, A. baumannii PBP1a. The essentials: (§1)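 Competitive equilibrium binding with Bocillin-FL reporter: PBP pre-incubated with inhibitor dilutions, Bocillin-FL added, 15 min incubation. Labelled enzyme isolated by size-exclusion spin plates, fluorescence measured; EC50 obtained by fitting bound fraction against inhibitor concentration with a Hill-coefficient model.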

A further experiment addresses A. baumannii PBP2 (Acinetobacter baumannii, UniProt D0C8Z9). The experiment can be described thus: Bocillin-FL competition binding via gel filtration, A. baumannii PBP2. In short, it runs like this:
as §1
(In general: Size exclusion chromatography separates by hydrodynamic size, large species first.)

The subject of a further experiment is P. aeruginosa ATCC 27853. Nature of the experiment: microbe, parasite or virus in culture. The class given is cell-based. The settings on record: Pseudomonas aeruginosa, ATCC27853, read-out: Minimum inhibitory concentration, P. aeruginosa ATCC 27853.
In another experiment the test system is A. baumannii ATCC 19606. Nature of the experiment: microbe, parasite or virus in culture. The settings on record: Acinetobacter baumannii, ATCC19606, read-out: MIC, A. baumannii ATCC 19606. In kind it is cell-based.
The next experiment has as its system P. aeruginosa ATCC 35151. Nature of the experiment: microbe, parasite or virus in culture. The class given is cell-based. The settings on record: Pseudomonas aeruginosa, ATCC35151, read-out: Minimum inhibitory concentration, P. aeruginosa ATCC 35151.
In the next experiment the test system is A. baumannii CDC-0033. The experiment can be described thus: microbe, parasite or virus in culture. The class given is cell-based. Particulars: Acinetobacter baumannii, CDC0033, read-out: MIC, A. baumannii CDC-0033.
The subject of another experiment is A. baumannii CDC-0036. Nature of the experiment: microbe, parasite or virus in culture. In kind it is cell-based. The settings on record: Acinetobacter baumannii, CDC0036, read-out: MIC, A. baumannii CDC-0036.
A further experiment relates to A. baumannii CDC-0045. The experiment can be described thus: microbe, parasite or virus in culture. The class given is cell-based. Particulars: Acinetobacter baumannii, CDC0045, read-out: MIC, A. baumannii CDC-0045.
Experiment [1] relates to B. humptydooensis ATCC BAA-2767. The experiment can be described thus: microbe, parasite or virus in culture. Particulars: Burkholderia humptydooensis, ATCCBAA2767, read-out: Minimum inhibitory concentration (MIC), B. humptydooensis ATCC BAA-2767. The class given is cell-based.
Setting [2] is: competition binding assay using Bocillin-FL via gel filtration, read-out: A. baumannii PBP1a Potency.

≈ marks a conversion by molar mass, not a printed value. Read-outs that look alike come from different tables or passages of the source.

Chain of A. baumannii PBP2 (D0C8Z9 whole entry): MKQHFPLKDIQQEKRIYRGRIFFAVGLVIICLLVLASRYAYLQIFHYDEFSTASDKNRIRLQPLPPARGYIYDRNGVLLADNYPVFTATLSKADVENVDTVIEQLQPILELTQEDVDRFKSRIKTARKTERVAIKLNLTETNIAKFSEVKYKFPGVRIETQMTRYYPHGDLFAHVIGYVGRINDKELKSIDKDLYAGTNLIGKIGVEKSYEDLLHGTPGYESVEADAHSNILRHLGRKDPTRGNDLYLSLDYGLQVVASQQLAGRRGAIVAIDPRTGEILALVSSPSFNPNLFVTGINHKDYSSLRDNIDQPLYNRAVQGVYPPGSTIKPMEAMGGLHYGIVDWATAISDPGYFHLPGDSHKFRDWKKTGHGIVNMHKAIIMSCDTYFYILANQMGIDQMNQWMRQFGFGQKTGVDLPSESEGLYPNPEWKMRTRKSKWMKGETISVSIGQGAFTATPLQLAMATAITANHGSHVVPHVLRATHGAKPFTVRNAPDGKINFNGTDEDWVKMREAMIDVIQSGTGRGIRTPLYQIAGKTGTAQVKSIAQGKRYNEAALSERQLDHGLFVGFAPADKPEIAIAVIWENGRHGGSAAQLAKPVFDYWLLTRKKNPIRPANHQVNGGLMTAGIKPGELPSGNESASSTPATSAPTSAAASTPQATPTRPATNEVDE

In the case of `O=C(O)c1c(F)ccc2c1OB(O)[C@@H](NC(=O)[C@H](NC(=O)N1CCN(C3CCN(C(=O)Nc4cc(O)cc(O)c4)CC3)C1=O)c1cc(F)c(O)c(O)c1Cl)C2` [Example 456, (R)-3-((R)-2-(2-chloro-5-fluoro-3,4-dihydroxyphenyl)-2-(3-(1-((3,5-dihydroxyphenyl)carbamoyl)piperidin-4-yl)-2-oxoimidazolidine-1-carboxamido)acetamido)-7-fluoro-2-hydroxy-3,4-dihydro-2H-benzo[e][1,2]oxaborinine-8-carboxylic acid], the EC50 at A. baumannii PBP1a (setting [2]) and at A. baumannii PBP2 was below 10 µM each time. Further, the MIC in the experiment on P. aeruginosa ATCC 27853, in the experiment with A. baumannii ATCC 19606, in the experiment with P. aeruginosa ATCC 35151, with A. baumannii CDC-0033, in the experiment on A. baumannii CDC-0036 and in the experiment on A. baumannii CDC-0045 was below 1 µg/mL in each case. Besides, the MIC in experiment [1] is below 1 µg/mL.

For the compound `O=C(O)c1c(F)ccc2c1OB(O)[C@@H](NC(=O)[C@H](NC(=O)N1CCN(C3CCN(C(=O)c4cccnc4)CC3)C1=O)c1cc(F)c(O)c(O)c1Cl)C2` [Example 460, (R)-3-((R)-2-(2-chloro-5-fluoro-3,4-dihydroxyphenyl)-2-(3-(1-nicotinoylpiperidin-4-yl)-2-oxoimidazolidine-1-carboxamido)acetamido)-7-fluoro-2-hydroxy-3,4-dihydro-2H-benzo[e][1,2]oxaborinine-8-carboxylic acid], the EC50 on A. baumannii PBP1a and on A. baumannii PBP2 was 10 to 50 µM in each case. In addition, the MIC in the experiment on P. aeruginosa ATCC 27853, in the experiment with A. baumannii ATCC 19606, in the experiment on P. aeruginosa ATCC 35151, with A. baumannii CDC-0033, with A. baumannii CDC-0036 and in the experiment on A. baumannii CDC-0045 was below 1 µg/mL in each case. Also, in experiment [1], the MIC is below 1 µg/mL.

Consider `O=C(O)c1c(F)ccc2c1OB(O)[C@@H](NC(=O)[C@H](NC(=O)N1CCN(C3CCN(C(=O)c4ccncc4)CC3)C1=O)c1cc(F)c(O)c(O)c1Cl)C2` [Example 461, (R)-3-((R)-2-(2-chloro-5-fluoro-3,4-dihydroxyphenyl)-2-(3-(1-isonicotinoylpiperidin-4-yl)-2-oxoimidazolidine-1-carboxamido)acetamido)-7-fluoro-2-hydroxy-3,4-dihydro-2H-benzo[e][1,2]oxaborinine-8-carboxylic acid], for which the EC50 on A. baumannii PBP1a (setting [2]) and at A. baumannii PBP2 was 10 to 50 µM throughout. The MIC in the experiment with P. aeruginosa ATCC 27853, in the experiment with A. baumannii ATCC 19606, in the experiment on P. aeruginosa ATCC 35151, in the experiment on A. baumannii CDC-0033, with A. baumannii CDC-0036 and in the experiment on A. baumannii CDC-0045 was below 1 µg/mL throughout. Also, the MIC in experiment [1] was below 1 µg/mL.

Turning to `O=C(O)c1c(F)ccc2c1OB(O)[C@@H](NC(=O)C(NC(=O)N1CCN(C3CCN(C(=O)Nc4cc(O)ccc4F)CC3)C(=O)C1=O)c1cc(F)c(O)c(O)c1Cl)C2` (stereo partly drawn) [Example 479, (3R)-3-(2-(2-chloro-5-fluoro-3,4-dihydroxyphenyl)-2-(4-(1-((2-fluoro-5-hydroxyphenyl)carbamoyl)piperidin-4-yl)-2,3-dioxopiperazine-1-carboxamido)acetamido)-7-fluoro-2-hydroxy-3,4-dihydro-2H-benzo[e][1,2]oxaborinine-8-carboxylic acid], the EC50 on A. baumannii PBP1a (setting [2]) and on A. baumannii PBP2 was 10 to 50 µM in each case. In addition, the MIC in the experiment with P. aeruginosa ATCC 27853 was 2 to 4 µg/mL (≈ 2.44 to 4.88 µM); with A. baumannii ATCC 19606, below 1 µg/mL; in the experiment with P. aeruginosa ATCC 35151 it was below 1 µg/mL; in the experiment with A. baumannii CDC-0033, 2 to 4 µg/mL (≈ 2.44 to 4.88 µM); in the experiment on A. baumannii CDC-0036, below 1 µg/mL; in the experiment on A. baumannii CDC-0045, below 1 µg/mL. Moreover, the MIC in experiment [1] lay in the range of 2 to 4 µg/mL (≈ 2.44 to 4.88 µM).

As to `O=C(O)c1c(F)ccc2c1OB(O)[C@@H](NC(=O)C(NC(=O)N1CCN(C3CCN(C(=O)Nc4ccc(F)c(O)c4)CC3)C(=O)C1=O)c1cc(F)c(O)c(O)c1Cl)C2` (stereo partly drawn) [Example 480, (3R)-3-(2-(2-chloro-5-fluoro-3,4-dihydroxyphenyl)-2-(4-(1-((4-fluoro-3-hydroxyphenyl)carbamoyl)piperidin-4-yl)-2,3-dioxopiperazine-1-carboxamido)acetamido)-7-fluoro-2-hydroxy-3,4-dihydro-2H-benzo[e][1,2]oxaborinine-8-carboxylic acid], the EC50 was below 10 µM at A. baumannii PBP1a (setting [2]) and 10 to 50 µM on A. baumannii PBP2. The MIC in the experiment on P. aeruginosa ATCC 27853 is 2 to 4 µg/mL (≈ 2.44 to 4.88 µM); in the experiment on A. baumannii ATCC 19606, below 1 µg/mL; with P. aeruginosa ATCC 35151 it was below 1 µg/mL; with A. baumannii CDC-0033, 2 to 4 µg/mL (≈ 2.44 to 4.88 µM); with A. baumannii CDC-0036 it was 2 to 4 µg/mL (≈ 2.44 to 4.88 µM); with A. baumannii CDC-0045, below 1 µg/mL. The MIC in experiment [1] was 8 to 16 µg/mL (≈ 9.77 to 19.5 µM).

For the compound `O=C(O)c1c(F)ccc2c1OB(O)[C@@H](NC(=O)C(NC(=O)N1CCN(C3CCN(C(=O)Nc4cc(O)cc(F)c4)CC3)C(=O)C1=O)c1cc(F)c(O)c(O)c1Cl)C2` (stereo partly drawn) [Example 481, (3R)-3-(2-(2-chloro-5-fluoro-3,4-dihydroxyphenyl)-2-(4-(1-((3-fluoro-5-hydroxyphenyl)carbamoyl)piperidin-4-yl)-2,3-dioxopiperazine-1-carboxamido)acetamido)-7-fluoro-2-hydroxy-3,4-dihydro-2H-benzo[e][1,2]oxaborinine-8-carboxylic acid], the EC50 at A. baumannii PBP1a (setting [2]) and on A. baumannii PBP2 was below 10 µM each time. Also, the MIC with P. aeruginosa ATCC 27853 is 2 to 4 µg/mL (≈ 2.44 to 4.88 µM); with A. baumannii ATCC 19606, below 1 µg/mL; with P. aeruginosa ATCC 35151, below 1 µg/mL; with A. baumannii CDC-0033 it was 2 to 4 µg/mL (≈ 2.44 to 4.88 µM); with A. baumannii CDC-0036 it was below 1 µg/mL; in the experiment on A. baumannii CDC-0045, below 1 µg/mL. In addition, the MIC in experiment [1] was 32 to 64 µg/mL (≈ 39.1 to 78.2 µM).

Take `O=C(O)c1c(F)ccc2c1OB(O)[C@@H](NC(=O)[C@H](NC(=O)N1CCN(C3CCN(C(=O)Nc4cccc(O)c4Cl)CC3)C(=O)C1=O)c1cc(F)c(O)c(O)c1Cl)C2` [Example 482, (R)-3-((R)-2-(4-(1-((2-chloro-3-hydroxyphenyl)carbamoyl)piperidin-4-yl)-2,3-dioxopiperazine-1-carboxamido)-2-(2-chloro-5-fluoro-3,4-dihydroxyphenyl)acetamido)-7-fluoro-2-hydroxy-3,4-dihydro-2H-benzo[e][1,2]oxaborinine-8-carboxylic acid]: the EC50 at A. baumannii PBP1a (setting [2]) and at A. baumannii PBP2 was 10 to 50 µM in each case. The MIC with P. aeruginosa ATCC 27853 is 2 to 4 µg/mL (≈ 2.39 to 4.79 µM); in the experiment on A. baumannii ATCC 19606, below 1 µg/mL; in the experiment with P. aeruginosa ATCC 35151, below 1 µg/mL; in the experiment on A. baumannii CDC-0033, 2 to 4 µg/mL (≈ 2.39 to 4.79 µM); with A. baumannii CDC-0036 it was below 1 µg/mL; with A. baumannii CDC-0045 it was below 1 µg/mL. Further, the MIC in experiment [1] was 2 to 4 µg/mL (≈ 2.39 to 4.79 µM).

As to `O=C(O)c1c(F)ccc2c1OB(O)[C@@H](NC(=O)C(NC(=O)N1CCN(C3CCN(C(=O)Nc4cc(O)ccc4Cl)CC3)C(=O)C1=O)c1cc(F)c(O)c(O)c1Cl)C2` (stereo partly drawn) [Example 483, (3R)-3-(2-(2-chloro-5-fluoro-3,4-dihydroxyphenyl)-2-(4-(1-((2-chloro-5-hydroxyphenyl)carbamoyl)piperidin-4-yl)-2,3-dioxopiperazine-1-carboxamido)acetamido)-7-fluoro-2-hydroxy-3,4-dihydro-2H-benzo[e][1,2]oxaborinine-8-carboxylic acid], the EC50 was below 10 µM on A. baumannii PBP1a (setting [2]) and 10 to 50 µM on A. baumannii PBP2. In addition, the MIC was 2 to 4 µg/mL (≈ 2.39 to 4.79 µM) with P. aeruginosa ATCC 27853; below 1 µg/mL in the experiment with A. baumannii ATCC 19606; below 1 µg/mL in the experiment with P. aeruginosa ATCC 35151; 8 to 16 µg/mL (≈ 9.58 to 19.2 µM) in the experiment on A. baumannii CDC-0033; 2 to 4 µg/mL (≈ 2.39 to 4.79 µM) in the experiment on A. baumannii CDC-0036; below 1 µg/mL in the experiment with A. baumannii CDC-0045. Besides, the MIC in experiment [1] is above 128 µg/mL.
